Source: patent US20220296566A1, “COMBINATION PRODUCT CONTAINING LIMONOID COMPOUND AND ALPHA-GLUCOSIDASE INHIBITOR” (ZHEJIANG YANGSHENGTANG INSTITUTE OF NATURAL MEDICATION CO., …, priority 2019, published 2022)

Key:
Assay type in all cases: in vivo
STZ mice = assay: Blood glucose in mouse type II diabetes model with pancreatic islet damage and obesity, STZ plus high-fat diet (Example 5); conditions: STZ + high-fat diet ICR mice; single agent 0.5 g/kg per day by gavage, two weeks; 1 h after last administration; mean ± SD
From the text: Effects of limonoid compound, acarbose or combination thereof on blood glucose in mouse type II diabetes model with pancreatic islet damage and obesity
In this example, a mouse model of type II diabetes with pancreatic islet damage and obesity was established by multiple modeling ICR mice with a small dose of streptozotocin (STZ), following with continuous high-fat diets (referring to literature: Zhang Jiyuan et al, Study on the effect of three plant extracts on improving glucose and lipid metabolism in type 2 diabetic mice, Food and Machinery, 2016, 32 (12): 142-147). […]
Experimental grouping: 15 male mice were randomly selected as the normal control group, and the remaining mice were subjected to a high-fat diet (high-fat diet formula: cholesterol 1%, egg yolk powder 10%, lard oil 10%, and basic feed 79%, for establishing an obesity mouse model) for consecutive 4 weeks and intraperitoneal injection of STZ at a dose of 35mg/kg for three consecutive days. After one week, the mice were subject to 24 hours of fasting and water deprivation, their fasting blood glucose was measured, and the mice with a blood glucose level of 15 to 25 mmol/L were selected and undifferentiatedly grouped and used in the experiment, continuously subjected to the high-fat diet, 15 mice in each group, and subjected to blood sampling and detection of indicators after 2 weeks of administration. […]

db/db mice [1] = assay: Blood glucose in mouse type II diabetes model, db/db mice (Example 4); conditions: single agent 0.2 g/kg per day by gavage, two weeks, 1 h after last administration, mean ± SD
From the text: (§1) Effects of limonoid compound, acarbose or combination thereof on blood glucose and insulin in mouse type II diabetes model
(§2) In the present embodiment, the limonoid compound was selected from nomilin, deacetylnomilin, nomilin acid, deacetylnomilin acid glycoside, and acarbose single administration group, nomilin single administration group, deacetylnomilin single administration group, nomilin acid single administered group, deacetylnomilin acid glycoside single administration group, and respective combination thereof with acarbose administration groups were set.
Conditions for experimental feeding: as type II diabetes model mice, 6-week-old SPF-grade db/db mice were purchased from the Nanjing Model Biology Institute, and subjected to experimental feeding after 7 days of preliminary feeding. […]
Gavage doses: nomilin at a dose of 0.2 g/kg was gavaged per day for the nomilin group, deacetylnomilin at a dose of 0.2 g/kg was gavaged per day for the deacetylnomilin group, nomilin acid at a dose of 0.2 g/kg was gavaged per day for the nomilin acid group, deacetylnomilin acid glycoside at a dose of 0.2 g/kg was gavaged per day for the deacetylnomilin acid glycoside group, acarbose at a dose of 0.2 g/kg was gavaged per day for the acarbose group, nomilin at a dose of 0.1 g/kg and acarbose at a dose of 0.1 g/kg were simultaneously gavaged per day for the nomilin combination group, nomilin acid at a dose of 0.1 g/kg and acarbose at a dose of 0.1 g/kg were simultaneously gavaged per day for the nomilin acid combination group, deacetylnomilin at a dose of 0.1 g/kg and acarbose at a dose of 0.1 g/kg were simultaneously gavaged per day for the deacetylnomilin combination group, deacetylnomilin acid glycoside at a dose of 0.1 g/kg and acarbose at a dose of 0.1 g/kg were simultaneously gavaged per day for the deacetylnomilin acid glycoside combination group, the gavage volume was 10 mL/kg, and the normal group and the model group were administrated with 10 mL/kg of distilled water. […] The data were expressed as mean and standard deviation. […]

db/db mice [2] = assay: Blood glucose in mouse type II diabetes model, db/db mice (Example 2); conditions: single agent 0.04 g/kg per day by gavage, two weeks, 1 h after last administration, mean ± SD
From the text: (§3) Effects of limonoid compound, acarbose or combination thereof on blood glucose and leptin in mouse type II diabetes model
(§4) In the present example, db/db mice (line name BKS.Cg-Dock7^m+/+Lepr^db/Nju) were used to perform hypoglycemic efficacy evaluation test of animals (blood glucose level and leptin). The limonoid compound was selected from obacunone, isoobacunoic acid and obacunone glycoside, and acarbose single administration group, obacunone single administration group, isoobacunoic acid single administration group, obacunone glycoside single administered group, and respective combination thereof with acarbose administration groups were set.
(§5) Conditions for experimental feeding: as type II diabetes model mice, 6-week-old SPF-grade db/db mice were purchased from the Nanjing Model Biology Institute, and subjected to experimental feeding after 7 days of preliminary feeding. It should be noted that the conditions for raising the mice were as follows: the temperature was 23±1° C., the humidity was 55±10%, the lights were turned on between 7 am and 7 pm (the lights were turned off at other time), and the mice were allowed to freely take in water and feed. […]

db/db mice [3] = assay: Serum leptin by Elisa in db/db mice (Example 2); conditions: single agent 0.04 g/kg per day by gavage, two weeks, mean ± SD
From the text: as §3, §4, §5

db/db mice [4] = assay: Serum insulin by Elisa in db/db mice (Example 4); conditions: single agent 0.2 g/kg per day by gavage, two weeks, mean ± SD
From the text: as §1, §2
as §5, with “feed. The experimental feed was mouse growth-stable feed (GB M2118), and the daily feeding and management of the animals were under the responsibility of the animal security department, which provided the animals with sufficient diet and fresh drinking water daily.” for “feed.”

Q: For `CC(=O)O[C@@H]1CC(=O)OC(C)(C)[C@@H]2CC(=O)[C@]3(C)[C@H](CC[C@@](C)(C(O[C@@H]4O[C@H](CO)[C@@H](O)[C@H](O)[C@H]4O)c4ccoc4)C34OC4C(=O)O)[C@@]12C` (stereo partly drawn) [Nomilin glycoside, nomilin glycoside], which Blood glucose value (STZ mice) is on record?
A: 12.8 ± 2.9 mmol/L

Q: With `CC(=O)O[C@H]1CC(=O)OC(C)(C)[C@@H]2CC(=O)[C@]3(C)[C@H](CC[C@@]4(C)[C@H](c5ccoc5)OC(=O)[C@H]5O[C@]543)[C@@]12C` [Nomilin, nomilin] as the molecule, how does the Blood glucose value (db/db mice [1]) read?
A: 10.1 ± 3.9 mmol/L

Q: `CC1(C)OC(=O)C=C[C@]2(C)[C@H]3CC[C@@](C)([C@@H](O[C@@H]4O[C@H](CO)[C@@H](O)[C@H](O)[C@H]4O)c4ccoc4)[C@@]4(O[C@@H]4C(=O)O)[C@]3(C)C(=O)C[C@@H]12` [Obacunone glycoside, obacunone glycoside] was tested. Which Blood glucose value (db/db mice [2]) did it give?
A: 13.7 ± 2.9 mmol/L

Q: What about the Leptin (db/db mice [3]) of the same molecule?
A: 28.55 ± 4.00 pg/mL

Q: For nomilin acid, which Insulin (db/db mice [4]) is on record?
A: 8.08 ± 1.49 pg/mL

Q: `CC1(C)OC(=O)C[C@H](O)[C@]2(C)[C@H]3CC[C@@]4(C)[C@H](c5ccoc5)OC(=O)[C@H]5O[C@]54[C@]3(C)C(=O)C[C@@H]12` [Deacetylnomilin, deacetylnomilin] was tested. Which Blood glucose value (db/db mice [1]) did it give?
A: 11.9 ± 2.9 mmol/L
